Laboratory results taken from publication PMC5936756, “Ionizing Radiation Induces Morphological Changes and Immunological Modulation of Jurkat Cells” (Frontiers in Immunology, 2018).

Assays:
[1] = test system: peripheral blood lymphocytes (PBL); assay: Determination of cell diameter of PBL after mitogen stimulation; assay type: cell-based, human; conditions: PHA-L 7.2 µg/ml, 48 h
Experimental: Jurkat cells (ACC 282) were purchased from the German Collection of Microorganisms and Cell Cultures (DSMZ, Braunschweig, Germany). The human EC line EA.hy926 (Crl-2922) was established by fusion of human umbilical vein ECs and the adenocarcinoma epithelial cell line A549 ([18]) and was purchased from ATCC (LGC Standards, Wesel, Germany). Cells were either grown in RPMI 1640 medium (Jurkat), supplemented with 10% heat inactivated fetal calf serum (FCS; PAA, Cölbe, Germany) and 2 mM L-glutamine or in Dulbecco’s modified Eagle’s medium (Invitrogen, Karlsruhe, Germany), supplemented with 10% FCS 50 U/ml penicillin and 5 µg/ml streptomycin (Sigma-Aldrich, Munich, Germany). PBL were isolated from buffy coats using density gradient centrifugation (Biochrom, Berlin, Germany). After centrifugation (40 min at 1,000 × g, RT) interphase cells were isolated, washed twice with PBS, and pelleted by centrifugation (300 × g, 10 min). For adhesion assays, Jurkat cells and PBL were biotinylated by incubation (15 min on ice) with a biotin-N-hydroxysuccinimid ester (NHS-biotin, 10 mg/ml, Sigma-Aldrich) and maintained in RPMI 1640 Medium with 20% FCS, 1% HEPES, and 1% penicillin/streptomycin prior to assays. […]
Cell diameters were measured with an EVE automatic cell counter (NanoEnTek, Seoul, South Korea). […]

[2] = target: T1, KCa2.2 channels (Homo sapiens, UniProt Q9H2S1); assay: Whole cell patch clamp recording of background current Ib in Jurkat cells; assay type: cell-based; conditions: Tamapin 10 nM
T1 construct: This small current includes, among others, the voltage independent small conductance K^+ channel KCa2.2; endogenous in cells; host or cells: Jurkat cells (ACC 282, DSMZ)
Experimental: (§1) Cells were exposed to X-ray irradiation in cell culture flasks using an Isovolt 160 Titan E source with a voltage of 90 kV and 33.7 mA (GE Sensing & Inspection Technologies, Alzenau, Germany). Doses were delivered at a 30 cm source to probe distance with cell culture flasks placed on a 2 mm aluminum sheet. CDK1-inhibitor RO3306 (Axon Medchem, Groningen, Netherlands) was dissolved in DMSO at 14.2 mM and added to the cell culture medium in a final concentration of 3 µM. Cyclosporin A (Sigma-Aldrich) was dissolved in ddH2O and added to the cell culture medium of non-irradiated control cells or directly after irradiation of cells in a concentration of 1 µM. The cell permeable Ca^2+ buffer BAPTA-AM [1,2-Bis(2-aminophenoxy)ethane-N,N,N',N'-tetraacetic acid tetrakis(acetoxymethyl) ester, Thermo Fisher] was added to the cell culture medium 30 min prior to cell irradiation at 50 µM and was removed immediately after irradiation. Phytohemagglutinin (PHA-L) was purchased from Biochrom (Berlin, Germany). Cells were treated for 48 h by adding PHA-L to the cell culture medium at a concentration of 7.2 µg/ml. […]
Membrane currents of cells were recorded in a whole cell configuration ([26]) using an EPC-9 amplifier (HEKA Electronics, Lambrecht, Germany). […] Currents were recorded and data analyzed with an EPC-9 amplifier and Patchmaster Software (all from Heka Electronic).

[3] = test system: KCa2.2 channels; conditions: cited from earlier work
[4] = test system: Jurkat cells; assay: Determination of cell diameter of Jurkat cells (EVE automatic cell counter); assay type: cell-based, human
Experimental: Cell diameters were measured with an EVE automatic cell counter (NanoEnTek, Seoul, South Korea). For cell diameter studies, a suitable protocol for Jurkat cells was established and all measurements were validated by visual inspection and if necessary corrected by hand using a personal computer based software. Viability was estimated by using trypan blue exclusion assays.
Cells were exposed to X-ray irradiation in cell culture flasks using an Isovolt 160 Titan E source with a voltage of 90 kV and 33.7 mA (GE Sensing & Inspection Technologies, Alzenau, Germany). Doses were delivered at a 30 cm source to probe distance with cell culture flasks placed on a 2 mm aluminum sheet. CDK1-inhibitor RO3306 (Axon Medchem, Groningen, Netherlands) was dissolved in DMSO at 14.2 mM and added to the cell culture medium in a final concentration of 3 µM. Cyclosporin A (Sigma-Aldrich) was dissolved in ddH2O and added to the cell culture medium of non-irradiated control cells or directly after irradiation of cells in a concentration of 1 µM. The cell permeable Ca^2+ buffer BAPTA-AM [1,2-Bis(2-aminophenoxy)ethane-N,N,N',N'-tetraacetic acid tetrakis(acetoxymethyl) ester, Thermo Fisher] was added to the cell culture medium 30 min prior to cell irradiation at 50 µM and was removed immediately after irradiation. Phytohemagglutinin (PHA-L) was purchased from Biochrom (Berlin, Germany). Cells were treated for 48 h by adding PHA-L to the cell culture medium at a concentration of 7.2 µg/ml. To activate human T-cells ImmunoCult™ Human CD3/CD28/CD2 T Cell Activator (Stem cell Technologies, Vancouver, BC, Canada) was added to the cell culture medium (25 µL per 1 mL of cell suspension) and maintained at 37°C and 5% CO2 for 48 h. The KCa2.2-specific ion channel blocker Tamapin was purchased from Alomone Labs (Jerusalem, Israel) and dissolved in purified water and diluted in external solution for patch clamp experiments.

[5] = test system: Jurkat cells; assay: Cell cycle analysis by flow cytometry (PI DNA content, cells in G2); assay type: cell-based, human; conditions: non-irradiated Jurkat cells, 3 µM RO3306
Experimental: as §1, with “irradiation.” for “irradiation. Phytohemagglutinin (PHA-L) was purchased from Biochrom (Berlin, Germany). Cells were treated for 48 h by adding PHA-L to the cell culture medium at a concentration of 7.2 µg/ml.”
Flow cytometric analyses were performed after 48 h following irradiation with propidium iodide (PI) solution (4% PI stock, 0.5 mg/ml PI, 38 mM sodium citrate, pH 7), 5% RNAse A stock (RNAse A 5 mg/ml, Tris–HCl 10 mM, NaCl 15 mM, pH 7) using a BioRad S3 Cell Sorter and the FlowJo 10 software for analysis (FlowJo LLC). The percentage of cells in G2/M phases was determined by single-parameter histograms of DNA content.

T1 sequence (Q9H2S1 whole entry): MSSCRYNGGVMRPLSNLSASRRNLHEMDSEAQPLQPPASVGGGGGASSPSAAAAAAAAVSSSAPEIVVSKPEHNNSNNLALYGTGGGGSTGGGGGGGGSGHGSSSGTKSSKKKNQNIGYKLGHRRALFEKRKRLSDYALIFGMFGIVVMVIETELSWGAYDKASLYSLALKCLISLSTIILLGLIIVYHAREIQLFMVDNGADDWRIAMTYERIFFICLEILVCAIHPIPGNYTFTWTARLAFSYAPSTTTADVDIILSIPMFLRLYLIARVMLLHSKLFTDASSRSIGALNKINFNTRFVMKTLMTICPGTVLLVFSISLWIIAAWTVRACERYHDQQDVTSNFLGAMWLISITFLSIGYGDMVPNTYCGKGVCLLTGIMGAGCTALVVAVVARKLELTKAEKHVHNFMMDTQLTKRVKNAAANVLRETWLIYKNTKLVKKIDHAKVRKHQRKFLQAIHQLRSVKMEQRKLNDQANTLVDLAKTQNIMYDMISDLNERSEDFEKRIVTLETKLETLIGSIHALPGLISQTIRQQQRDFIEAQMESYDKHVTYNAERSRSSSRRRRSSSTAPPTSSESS

Compound: Phytohemagglutinin [PHA-L]
- fraction of cells with increased mean size ([1]; PBL from healthy donors, fit with two Gaussians): 45%
- mean size (diameter) of the enlarged cell population ([1]; PBL, mock treated 7.2 µm): 10.2 µm

Compound: Tamapin: scorpion toxin, KCa2.2-specific ion channel blocker (Alomone Labs) (AFCNLRRCELSCRSLGLLGKCIGEECKCVPY; UniProt P59869 1-31, looked up)
- inhibition of Ib ([2]; irradiated Jurkat cells (1.25 Gy, 48 h after X-ray)): 23 ± 10%
- inhibition of Ib ([2]; mock-irradiated control Jurkat cells, N = 3): 3.3 ± 0.7%
- IC50 [3]: 0.024 nM

Compound: O=C1NC(=NCc2cccs2)S/C1=C\c1ccc2ncccc2c1 [RO3306]
- increase in cell diameter ([4]; non-irradiated Jurkat cells, 3 µM RO3306): 9.6 ± 3%
- cells arrested in G2 phase [5]: 71%

Compound: CC(=O)OCOC(=O)CN(CC(=O)OCOC(C)=O)c1ccccc1OCCOc1ccccc1N(CC(=O)OCOC(C)=O)CC(=O)OCOC(C)=O [BAPTA-AM, 1,2-Bis(2-aminophenoxy)ethane-N,N,N',N'-tetraacetic acid tetrakis(acetoxymethyl) ester]
- effect on radiation-induced increase in cell diameter ([4]; Jurkat cells irradiated with 2 Gy, cyclosporine A 1 µM or BAPTA-AM 50 µM): decreased the effect of irradiation
- reduction of the radiation-induced cell diameter increase ([4]; irradiated Jurkat cells, cyclosporine A 1 µM or BAPTA-AM 50 µM): 50%
